Reference: ChEMBL document CHEMBL5143624, “WCK 1152, WCK 1153: Discovery and structure activity relationship for the treatment of resistant pneumococcal and staphylococcal respiratory infections” (Bioorg Med Chem Lett, 2022)
≈ marks a conversion by molar mass, not a printed value.

Legend:
Staphylococcus aureus [1] = test: Antibacterial activity against methicillin resistant Staphylococcus aureus assessed as inhibition of bacterial growth incubated for 18 hrs by CLSI based serial agar dilution method; format: functional
Staphylococcus aureus [2] = test: Antibacterial activity against methicillin resistant Staphylococcus aureus 032 assessed as inhibition of bacterial growth incubated for 18 hrs by CLSI based serial agar dilution method; format: functional
Streptococcus pneumoniae [3] = test: Antibacterial activity against beta-lactams, macrolide and fluoroquinolone resistant Streptococcus pneumoniae 718 assessed as inhibition of bacterial growth incubated for 18 hrs by CLSI based serial agar dilution method; format: functional
Staphylococcus aureus [4] = test: Antibacterial activity against Staphylococcus aureus […] assessed as inhibition of bacterial growth incubated for 18 hrs by CLSI based serial agar dilution method; format: functional
Staphylococcus aureus [5] = test: Antibacterial activity against methicillin resistant Staphylococcus aureus 5076 harbouring DNA gyrase and topoisomerase IV mutant and efflux pump assessed as inhibition of bacterial growth incubated for 18 hrs in presence of efflux inhibitor by CLSI based serial agar dilution method; format: functional
Streptococcus pneumoniae [6] = test: Antibacterial activity against beta-lactams, macrolide and fluoroquinolone resistant Streptococcus pneumoniae 718 infected in po dosed Swiss mouse septicemia model assessed as protective dose administered on 1 and 5 hrs post infection and measured on day 7; format: functional, organism-based
Streptococcus pneumoniae [7] = test: Antibacterial activity against Streptococcus pneumoniae assessed as inhibition of bacterial growth incubated for 18 hrs by CLSI based serial agar dilution method; format: functional
Streptococcus pneumoniae [8] = test: Antibacterial activity against Streptococcus pneumoniae 5844 harbouring moxifloxacin resistant DNA gyrase and topoisomerase IV mutant assessed as inhibition of bacterial growth incubated for 18 hrs by CLSI based serial agar dilution method; format: functional; details: Streptococcus pneumoniae, 5844, 18 h
Streptococcus pneumoniae [9] = test: Antibacterial activity against fluoroquinolone efflux positive Streptococcus pneumoniae 706 assessed as inhibition of bacterial growth incubated for 18 hrs by CLSI based serial agar dilution method; format: functional
Staphylococcus aureus [10] = test: Antibacterial activity against methicillin resistant Staphylococcus aureus 5076 assessed as inhibition of bacterial growth incubated for 18 hrs by CLSI based serial agar dilution method; format: functional
[11] = Mutagenicity in Swiss mouse assessed as chromosomal aberration in bone marrow cells at 400 mg/kg, po measured after 24 hrs relative to control; format: toxicity, organism-based; details: in vivo
[12] = Induction of drug resistance in methicillin resistant Staphylococcus aureus assessed as increase in MIC measured after 10 passages (reference value: 0.4 ug/ml); format: functional
[13] = Staphylococcus aureus, read-out: MIC
[14] = Staphylococcus aureus, 032, 18 h, read-out: MIC
[15] = Streptococcus pneumoniae, 718, 18 h, read-out: MIC
[16] = Streptococcus pneumoniae, 18 h, read-out: MIC

Compound: COc1c(N2CC[C@H](N)C(C)(C)C2)c(F)cc2c(=O)c(C(=O)O)cn(C3CC3)c12
- MIC (Staphylococcus aureus [1]; [13]): 0.05 µg/mL (≈ 0.124 µM)
- MIC (Staphylococcus aureus [2]; [14]): 0.8 µg/mL (≈ 1.98 µM)
- MIC (Streptococcus pneumoniae [3]; [15]): 0.8 µg/mL (≈ 1.98 µM)
- MIC (Staphylococcus aureus [4]): 0.05 µg/mL (≈ 0.124 µM)
- MIC (Staphylococcus aureus [5]): 1.56 µg/mL
- EC50 (Streptococcus pneumoniae [6]): 50 mg/kg

Compound: CONC1CCN(c2c(F)cc3c(=O)c(C(=O)O)cn(C4CC4)c3c2OC)CC1(C)C (configuration not stated)
- MIC (Staphylococcus aureus [1]; [13]): 0.1 µg/mL (≈ 0.231 µM)
- MIC (Streptococcus pneumoniae [7]; [16]): 0.8 µg/mL (≈ 1.85 µM)
- MIC (Streptococcus pneumoniae [8]): > 6.25 µg/mL
- MIC (Streptococcus pneumoniae [9]): 0.8 µg/mL (≈ 1.85 µM)

Compound: CCC1CN(c2c(F)cc3c(=O)c(C(=O)O)cn(C4CC4)c3c2OC)CCC1NC (configuration not stated)
- MIC (Staphylococcus aureus [1]; [13]): 0.2 µg/mL (≈ 0.479 µM)
- MIC (Streptococcus pneumoniae [7]; [16]): 1.56 µg/mL (≈ 3.74 µM)

Compound: CC1(C)CN(c2cc3c(cc2F)c(=O)c(C(=O)O)cn3C2CC2)CCC1N (configuration not stated)
- MIC (Staphylococcus aureus [1]; [13]): 12.5 µg/mL (≈ 33.5 µM)
- MIC (Streptococcus pneumoniae [7]; [16]): 0.8 µg/mL (≈ 2.14 µM)

Compound: COc1c(N2CCC(N(C)C)C(C)(C)C2)c(F)cc2c(=O)c(C(=O)O)cn(C3CC3)c12 (configuration not stated)
- MIC (Staphylococcus aureus [1]; [13]): 0.2 µg/mL (≈ 0.463 µM)
- MIC (Streptococcus pneumoniae [7]; [16]): 0.4 µg/mL (≈ 0.927 µM)

Compound: COc1c(N2CCC(N)C(C)C2)c(F)cc2c(=O)c(C(=O)O)cn(C3CC3)c12 (configuration not stated)
- MIC (Staphylococcus aureus [1]; [13]): 0.05 µg/mL (≈ 0.128 µM)
- MIC (Streptococcus pneumoniae [7]; [16]): 0.2 µg/mL (≈ 0.514 µM)

Compound: CCNC1CCN(c2c(F)cc3c(=O)c(C(=O)O)cn(C4CC4)c3c2OC)CC1(C)C (configuration not stated)
- MIC (Staphylococcus aureus [1]; [13]): 0.2 µg/mL (≈ 0.463 µM)
- MIC (Streptococcus pneumoniae [7]; [16]): 1.56 µg/mL (≈ 3.62 µM)
- MIC (Streptococcus pneumoniae [9]): 1.56 µg/mL (≈ 3.62 µM)

Compound: COc1c(N2CC(C)C(N)C(C)C2)c(F)cc2c(=O)c(C(=O)O)cn(C3CC3)c12 (cis isomer)
- MIC (Staphylococcus aureus [1]): 0.1 µg/mL (≈ 0.248 µM)

Compound: Cc1c(N2CCC(N)C(C)C2)c(F)cc2c(=O)c(C(=O)O)cn(C3CC3)c12.Cl (cis isomer)
- EC50 (Streptococcus pneumoniae [6]): 30 mg/kg

Compound: Cc1c(N2CCC(N)C(C)(C)C2)c(F)cc2c(=O)c(C(=O)O)cn(C3CC3)c12 (racemic)
- MIC (Staphylococcus aureus [2]; 18 h): 1.56 µg/mL (≈ 4.03 µM)
- MIC (Streptococcus pneumoniae [3]; 18 h): 1.56 µg/mL (≈ 4.03 µM)

Compound: Cc1c(N2CCC(N)C(C)(C)C2)c(F)cc2c(=O)c(C(=O)O)cn(C3CC3)c12.Cl (racemic)
- EC50 (Streptococcus pneumoniae [6]): 30 mg/kg

Compound: Cc1c(N2CCC(O)C(C)(C)C2)c(F)cc2c(=O)c(C(=O)O)cn(C3CC3)c12.Cl (racemic)
- MIC (Staphylococcus aureus [2]; [14]): 0.8 µg/mL
- MIC (Streptococcus pneumoniae [3]; [15]): 0.8 µg/mL

Compound: Cc1c(N2CCC(O)C(C)(C)C2)c(F)cc2c(=O)c(C(=O)O)cn(C3CC3)c12 (single isomer, unassigned; (+))
- MIC (Staphylococcus aureus [2]; [14]): 0.2 µg/mL (≈ 0.515 µM)
- MIC (Streptococcus pneumoniae [3]; [15]): 0.2 µg/mL (≈ 0.515 µM)
- MIC (Staphylococcus aureus [4]): 0.003 µg/mL (≈ 0.00772 µM)
- MIC (Staphylococcus aureus [10]): 0.2 µg/mL (≈ 0.515 µM)
- MIC (Staphylococcus aureus [5]): 0.2 µg/mL

Compound: Cc1c(N2CCC(N)C(C)(C)C2)c(F)cc2c(=O)c(C(=O)O)cn(C3CC3)c12 (single isomer, unassigned; (-))
- MIC (Staphylococcus aureus [2]; 18 h): 0.4 µg/mL (≈ 1.03 µM)
- MIC (Streptococcus pneumoniae [3]; 18 h): 0.4 µg/mL (≈ 1.03 µM)
- MIC (Staphylococcus aureus [10]): 0.8 µg/mL (≈ 2.06 µM)
- MIC (Staphylococcus aureus [5]): 0.8 µg/mL
- EC50 (Streptococcus pneumoniae [6]): 20 mg/kg

Compound: COc1c(N2CCC(N)C(C)(C)C2)c(F)cc2c(=O)c(C(=O)O)cn(C3CC3)c12 (single isomer, unassigned; (-))
- Activity [11]: 3.8%

Compound: COc1c(N2CC(C)C(N)C(C)C2)c(F)cc2c(=O)c(C(=O)O)cn(C3CC3)c12 (stereo in doubt)
- MIC (Staphylococcus aureus [1]; [13]): 0.1 µg/mL (≈ 0.248 µM)
- MIC (Streptococcus pneumoniae [7]; [16]): 0.1 µg/mL (≈ 0.248 µM)

Compound: CCNC1C(C)CN(c2c(F)cc3c(=O)c(C(=O)O)cn(C4CC4)c3c2OC)CC1C (stereo in doubt)
- MIC (Staphylococcus aureus [1]): 0.2 µg/mL (≈ 0.463 µM)
- MIC (Streptococcus pneumoniae [7]): 1.56 µg/mL (≈ 3.62 µM)

Compound: Cc1c(N2CCC(O)C(C)C2)c(F)cc2c(=O)c(C(=O)O)cn(C3CC3)c12 (stereo in doubt; form 1)
- MIC (Staphylococcus aureus [2]; [14]): 0.2 µg/mL (≈ 0.534 µM)
- MIC (Streptococcus pneumoniae [3]; [15]): 0.2 µg/mL (≈ 0.534 µM)

Compound: COc1c(N2CCC(N)C(C)(C)C2)c(F)cc2c(=O)c(C(=O)O)cn(C3CC3)c12 (stereo in doubt; form 1)
- MIC (Staphylococcus aureus [1]; [13]): 0.05 µg/mL (≈ 0.124 µM)
- MIC (Staphylococcus aureus [2]; [14]): 0.6 µg/mL (≈ 1.49 µM)
- MIC (Staphylococcus aureus [5]): 1.56 µg/mL
- EC50 (Streptococcus pneumoniae [6]): 30 mg/kg
- Activity [11]: 5.83%

Compound: Cc1c(N2CCC(O)C(C)C2)c(F)cc2c(=O)c(C(=O)O)cn(C3CC3)c12 (stereo in doubt; form 2)
- MIC (Staphylococcus aureus [2]): 0.2 µg/mL (≈ 0.534 µM)
- MIC (Streptococcus pneumoniae [3]): 0.2 µg/mL (≈ 0.534 µM)

Compound: COc1c(N2CCC(N)C(C)(C)C2)c(F)cc2c(=O)c(C(=O)O)cn(C3CC3)c12 (stereo in doubt; form 2)
- Activity [11]: 12%

Compound: COc1c(N2CC(C)C(N)C(C)C2)c(F)cc2c(=O)c(C(=O)O)cn(C3CC3)c12 (trans isomer)
- MIC (Staphylococcus aureus [1]): 0.05 µg/mL (≈ 0.124 µM)
- MIC (Streptococcus pneumoniae [7]; 18 h): 0.2 µg/mL (≈ 0.496 µM)

Compound: CCNC1C(C)CN(c2c(F)cc3c(=O)c(C(=O)O)cn(C4CC4)c3c2OC)CC1C (trans isomer)
- MIC (Staphylococcus aureus [1]): 0.012 µg/mL (≈ 0.0278 µM)
- MIC (Streptococcus pneumoniae [7]; [16]): 1.56 µg/mL (≈ 3.62 µM)

Compound: Cc1c(N2CCC(N)C(C)C2)c(F)cc2c(=O)c(C(=O)O)cn(C3CC3)c12 (trans isomer)
- MIC (Staphylococcus aureus [2]; [14]): 0.8 µg/mL (≈ 2.14 µM)

Compound: COc1c(N2CCNC(C)C2)c(F)cc2c(=O)c(C(=O)O)cn(C3CC3)c12 (configuration not stated) [GATIFLOXACIN]
- EC50 (Streptococcus pneumoniae [6]): > 100 mg/kg

Compound: C[C@H]1COc2c(N3CCN(C)CC3)c(F)cc3c(=O)c(C(=O)O)cn1c23.C[C@H]1COc2c(N3CCN(C)CC3)c(F)cc3c(=O)c(C(=O)O)cn1c23.O [LEVOFLOXACIN]
- MIC (Staphylococcus aureus [2]; [14]): 6.25 µg/mL
- EC50 (Streptococcus pneumoniae [6]): > 100 mg/kg

Compound: C[C@H]1CCc2c(N3CCC(O)CC3)c(F)cc3c(=O)c(C(=O)O)cn1c23 [LEVONADIFLOXACIN]
- MIC (Staphylococcus aureus [1]; [13]): 0.4 µg/mL (≈ 1.11 µM)
- MIC (Streptococcus pneumoniae [7]; [16]): 0.4 µg/mL (≈ 1.11 µM)

Compound: COc1c(N2C[C@@H]3CCCN[C@@H]3C2)c(F)cc2c(=O)c(C(=O)O)cn(C3CC3)c12 [MOXIFLOXACIN]
- EC50 (Streptococcus pneumoniae [6]): > 100 mg/kg
- MIC [12]: 6.25 µg/mL

Compound: CC1COc2c(N3CCN(C)CC3)c(F)cc3c(=O)c(C(=O)O)cn1c23 (configuration not stated) [OFLOXACIN]
- MIC (Staphylococcus aureus [1]; [13]): 0.4 µg/mL (≈ 1.11 µM)
- MIC (Streptococcus pneumoniae [7]; [16]): 0.4 µg/mL (≈ 1.11 µM)
